Numbers after ± are expanded uncertainties.
Assay: xn = mol fraction of the nth substance listed
Conditions: 101 kPa, Liquid, Vibrating tube method, x2 = 0.5

mass density (303.15 K): 1189.9 ± 0.6 kg/m3 | mass density (308.15 K): 1187.3 ± 0.6 kg/m3 | mass density (313.15 K): 1184.7 ± 0.6 kg/m3 | mass density (318.15 K): 1182.1 ± 0.6 kg/m3 | mass density (323.15 K): 1179.7 ± 0.6 kg/m3
Compound: O=C(O)CC(=O)O [propanedioic acid] + C[N+](C)(C)CCO.[Cl-]

— the NIST ThermoML archive (doi:10.1016/j.jct.2013.08.029)
